Assay results: patent US8163740B2, “6-substituted benzoxazines” (Hoffmann-La Roche Inc., priority 2008, dated 2012)

target: recombinant human 5-HT5A receptor (Homo sapiens, UniProt P47898); test: [3H]LSD radioligand binding assay; details: not given
Outline: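 Membranes from HEK-EBNA cells transiently expressing the receptor, with ~1 nM [3H]LSD in 50 mM Tris, 1 mM EGTA, 10 mM MgCl2, 10 μM pargyline, pH 7.4, SPA bead format. Incubated 120 min RT; nonspecific binding defined with 2 μM methiothepin. 10 concentrations in duplicate; IC50 converted to Ki via Cheng-Prusoff.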

Chain of recombinant human 5-HT5A receptor (P47898 whole entry): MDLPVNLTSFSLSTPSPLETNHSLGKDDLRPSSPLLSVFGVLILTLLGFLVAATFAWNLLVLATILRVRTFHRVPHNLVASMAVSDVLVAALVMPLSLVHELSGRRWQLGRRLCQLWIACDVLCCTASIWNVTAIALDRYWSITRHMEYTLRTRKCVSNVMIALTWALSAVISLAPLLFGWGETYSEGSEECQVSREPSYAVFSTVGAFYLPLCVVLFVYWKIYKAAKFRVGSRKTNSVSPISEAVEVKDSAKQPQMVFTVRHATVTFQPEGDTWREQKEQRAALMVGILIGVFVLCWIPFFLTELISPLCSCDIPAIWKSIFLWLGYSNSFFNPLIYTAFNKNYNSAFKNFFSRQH

SMILES	Ki [nM]
CN1C2COCC1CC(CC(=O)Nc1ccc3c(c1)COC(NC1CCc4ccccc41)=N3)C2 [Example 157, endo-N-[2-((R)-indan-1-ylamino)-4H-benzo[d][1,3]oxazin-6-yl]-2-(9-methyl-3-oxa-9-aza-bicyclo[3.3.1]non-7-yl)-acetamide]	2.98
CN1C2COCC1CN(CC(=O)Nc1ccc3c(c1)COC(N[C@@H]1CCc4ccccc41)=N3)C2 [Example 159, N-[2-((R)-Indan-1-ylamino)-4H-benzo[d][1,3]oxazin-6-yl]-2-(9-methyl-3-oxa-7,9-diaza-bicyclo[3.3.1]non-7-yl)-acetamide]	18.9

same assay, conditions: [3H]LSD (approximately 1 nM); membranes from HEK-EBNA cells transiently expressing 5-HT5A; Ki by Cheng-Prussoff equation; read-out: Ki

SMILES	Ki [nM]
O=C(CN1CCOCC1)Nc1ccc2c(c1)COC(NCCOc1ccccc1)=N2 [Example 123, 2-Morpholin-4-yl-N-[2-(2-phenoxy-ethylamino)-4H-benzo[d][1,3]oxazin-6-yl]-acetamide]	41.4
Cc1cc(C)nc(Nc2ccc3c(c2)COC(N[C@@H]2CCc4ccccc42)=N3)n1 [Example 47, N^6-(4,6-Dimethyl-pyrimidin-2-yl)-N^2-(R)-indan-1-yl-4H-benzo[d][1,3]oxazine-2,6-diamine]	3.56
COc1ccccc1CNC1=Nc2ccc(NC(=O)CN3CCN(C(C)C)CC3)cc2CO1 [Example 29, 2-(4-Isopropyl-piperazin-1-yl)-N-[2-(2-methoxy-benzylamino)-4H-benzo[d][1,3]oxazin-6-yl]-acetamide]	10.9
CN1CCN(CC(=O)Nc2ccc3c(c2)COC(NC2CCOc4ccccc42)=N3)CC1 (racemic) [Example 120, rac-N-[2-(Chroman-4-ylamino)-4H-benzo[d][1,3]oxazin-6-yl]-2-(4-methyl-piperazin-1-yl)-acetamide]	14.3
COc1ccccc1CNC1=Nc2ccc(N)cc2CO1 [Example 4, N^2-(2-Methoxy-benzyl)-4H-benzo[d][1,3]oxazine-2,6-diamine]	6.05
Fc1ccc2c(c1)CCC2NC1=Nc2ccc(Br)cc2CO1 (racemic) [Example 53, rac-(6-Bromo-4H-benzo[d][1,3]oxazin-2-yl)-(5-fluoro-indan-1-yl)-amine]	43.6
CC(=O)Nc1ccc2c(c1)COC(N[C@@H]1CCc3ccccc31)=N2 [Example 48, N-[2-((R)-Indan-1-ylamino)-4H-benzo[d][1,3]oxazin-6-yl]-acetamide]	3.63
c1ccc2c(c1)CC[C@H]2NC1=Nc2ccc(C3CC3)cc2CO1 [Example 152, (6-Cyclopropyl-4H-benzo[d][1,3]oxazin-2-yl)-(R)-indan-1-yl-amine]	27.3
COc1cccc2c1C(NC1=Nc3ccc(NC(=O)CN4CCN(C)CC4)cc3CO1)CC2 (racemic) [Example 86, rac-N-[2-(7-Methoxy-indan-1-ylamino)-4H-benzo[d][1,3]oxazin-6-yl]-2-(4-methyl-piperazin-1-yl)-acetamide]	1.43
COc1cccc2c1C(NC1=Nc3ccc(NS(=O)(=O)N4CCCCC4)cc3CO1)CO2 (racemic) [Example 50, rac-Piperidine-1-sulfonic acid [2-(4-methoxy-2,3-dihydro-benzofuran-3-ylamino)-4H-benzo[d][1,3]oxazin-6-yl]-amide]	26.9
O=C(Nc1ccc2c(c1)COC(NC1CCc3cc(F)ccc31)=N2)C1CC1 (racemic) [Example 20, rac-Cyclopropanecarboxylic acid [2-(5-fluoro-indan-1-ylamino)-4H-benzo[d][1,3]oxazin-6-yl]-amide]	1.36
Cc1ccc(CNC2=Nc3ccc(N)cc3CO2)o1 [Example 77, N^2-(5-Methyl-furan-2-ylmethyl)-4H-benzo[d][1,3]oxazine-2,6-diamine]	13.5
O=S(=O)(Nc1ccc2c(c1)COC(Nc1cccc(C3CC3)c1)=N2)C1CC1 [Example 149, Cyclopropanesulfonic acid [2-(3-cyclopropyl-phenylamino)-4H-benzo[d][1,3]oxazin-6-yl]-amide]	138
COc1cccc2c1C(NC1=Nc3ccc(NS(=O)(=O)N(C)C)cc3CO1)CO2 (racemic) [Example 49, rac-N,N-(Dimethyl)-N′-{2-(4-Methoxy-2,3-dihydro-benzofuran-3-ylamino)-4H-benzo[d][1,3]oxazin-6-yl}-sulfamide]	21.1
FC(F)(F)c1ccnc(Nc2ccc3c(c2)COC(N[C@@H]2CCc4ccccc42)=N3)n1 [Example 46, N^2-(R)-Indan-1-yl-N^6-(4-trifluoromethyl-pyrimidin-2-yl)-4H-benzo[d][1,3]oxazine-2,6-diamine]	7.1
CC(C)N1C2CCC1CC(NCC(=O)Nc1ccc3c(c1)COC(N[C@@H]1CCc4ccccc41)=N3)C2 (stereo partly drawn) [Example 76, N-[2-((R)-Indan-1-ylamino)-4H-benzo[d][1,3]oxazin-6-yl]-2-((exo)-8-isopropyl-8-aza-bicyclo[3.2.1]oct-3-ylamino)-acetamide]	13.5
O=S(=O)(Nc1ccc2c(c1)COC(NC1CCCCCC1)=N2)C1CC1 [Example 97, Cyclopropanesulfonic acid (2-cycloheptylamino-4H-benzo[d][1,3]oxazin-6-yl)-amide]	38.6
O=C(NCc1ccc2c(c1)COC(N[C@@H]1CCc3ccccc31)=N2)c1ccc(F)cc1 [Example 132, 4-Fluoro-N-[2-((R)-indan-1-ylamino)-4H-benzo[d][1,3]oxazin-6-ylmethyl]-benzamide]	48

SMILES	Ki [nM]
COc1cccc2c1C(NC1=Nc3ccc(NC(=O)NC(C)C)cc3CO1)CO2 (racemic) [Example 16, rac-1-Isopropyl-3-[2-(4-methoxy-2,3-dihydro-benzofuran-3-ylamino)-4H-benzo[d][1,3]oxazin-6-yl]-urea]	2.93
O=S(=O)(Nc1ccc2c(c1)COC(NCCOc1ccccc1)=N2)C1CC1 [Example 108, Cyclopropanesulfonic acid [2-(2-phenoxy-ethylamino)-4H-benzo[d][1,3]oxazin-6-yl]-amide]	29.1
CN1CCN(CC(=O)Nc2ccc3c(c2)COC(NCCOc2ccccc2)=N3)CC1 [Example 122, 2-(4-Methyl-piperazin-1-yl)-N-[2-(2-phenoxy-ethylamino)-4H-benzo[d][1,3]oxazin-6-yl]-acetamide]	5.11
O=C(CN1CCS(=O)(=O)CC1)Nc1ccc2c(c1)COC(N[C@@H]1CCc3ccccc31)=N2 [Example 66, 2-(1,1-Dioxo-1λ^6-thiomorpholin-4-yl)-N-[2-((R)-indan-1-ylamino)-4H-benzo[d][1,3]oxazin-6-yl]-acetamide]	16
COc1cccc2c1C(NC1=Nc3ccc(N)cc3CO1)CO2 (racemic) [Example 6, rac-N^2-(4-Methoxy-2,3-dihydro-benzofuran-3-yl)-4H-benzo[d][1,3]oxazine-2,6-diamine]	7.83
COc1cccc2c1C(NC1=Nc3ccc(NC(C)=O)cc3CO1)CO2 (racemic) [Example 51, rac-N-[2-(4-Methoxy-2,3-dihydro-benzofuran-3-ylamino)-4H-benzo[d][1,3]oxazin-6-yl]-acetamide]	23.7
CC(C)N1CCC(NC(=O)Nc2ccc3c(c2)COC(Nc2cccc(C4CC4)c2)=N3)CC1 [Example 137, 1-[2-(3-Cyclopropyl-phenylamino)-4H-benzo[d][1,3]oxazin-6-yl]-3-(1-isopropyl-piperidin-4-yl)-urea]	5.32
COCC1CN(CC(=O)Nc2ccc3c(c2)COC(N[C@@H]2CCc4ccccc42)=N3)CCN1C (stereo partly drawn) [Example 147, N-[2-((R)-Indan-1-ylamino)-4H-benzo[d][1,3]oxazin-6-yl]-2-(3-methoxymethyl-4-methyl-piperazin-1-yl)-acetamide]	3.55
Cc1ccc(CNC2=Nc3ccc(NC(=O)CN4CCOCC4)cc3CO2)o1 [Example 85, N-{2-[(5-Methyl-furan-2-ylmethyl)-amino]-4H-benzo[d][1,3]oxazin-6-yl}-2-morpholin-4-yl-acetamide]	251
COCCNCC(=O)Nc1ccc2c(c1)COC(NC1COc3cc(F)ccc31)=N2 (racemic) [Example 42, rac-N-[2-(6-Fluoro-2,3-dihydro-benzofuran-3-ylamino)-4H-benzo[d][1,3]oxazin-6-yl]-2-(2-methoxy-ethylamino)-acetamide]	56.4
CN1CCN(CC(=O)Nc2ccc3c(c2)COC(N[C@@H]2CCCc4ccccc42)=N3)CC1 [Example 38, 2-(4-Methyl-piperazin-1-yl)-N-{2-[(R)-(1,2,3,4-tetrahydro-naphthalen-1-yl)amino]-4H-benzo[d][1,3]oxazin-6-yl}-acetamide]	3.16
O=C(Nc1ccc2c(c1)COC(Nc1cccc(C3CC3)c1)=N2)C1CC1 [Example 128, Cyclopropanecarboxylic acid [2-(3-cyclopropyl-phenylamino)-4H-benzo[d][1,3]oxazin-6-yl]-amide]	23.5
O=C(CN1CCOCC1)Nc1ccc2c(c1)COC(NC1CCOc3ccccc31)=N2 (racemic) [Example 121, N-[2-(Chroman-4-ylamino)-4H-benzo[d][1,3]oxazin-6-yl]-2-morpholin-4-yl-acetamide]	135
Fc1ccc2c(c1)CCC2NC1=Nc2ccc(Nc3cccc(C(F)(F)F)n3)cc2CO1 (racemic) [Example 57, rac-N^2-(5-Fluoro-indan-1-yl)-N^6-(6-trifluoromethyl-pyridin-2-yl)-4H-benzo[d][1,3]oxazine-2,6-diamine]	6.06
CN1CCN(CC(=O)Nc2ccc3c(c2)COC(NC2CCCCCCC2)=N3)CC1 [Example 156, N-(2-Cyclooctylamino-4H-benzo[d][1,3]oxazin-6-yl)-2-(4-methyl-piperazin-1-yl)-acetamide]	2.16
CN1CCN(CC(=O)Nc2ccc3c(c2)COC(NC2COc4cc(F)ccc42)=N3)CC1 (racemic) [Example 44, rac-N-[2-(6-Fluoro-2,3-dihydro-benzofuran-3-ylamino)-4H-benzo[d][1,3]oxazin-6-yl]-2-(4-methyl-piperazin-1-yl)-acetamide]	6.5
COc1ccccc1CNC1=Nc2ccc(NC(=O)C3CC3)cc2CO1 [Example 7, Cyclopropanecarboxylic acid [2-(2-methoxy-benzylamino)-4H-benzo[d][1,3]oxazin-6-yl]-amide]	2.98
